Measured values from patent US8614301B2, “Methods of treating cancer using anti CD24 antibodies” (priority 2007, dated 2013).
Residues, ends and D or L forms follow the SMILES beside them. *: point of attachment. Cbz = O=C(OCc1ccccc1)*

T1: CD24 in HT29 cells (Homo sapiens, UniProt P25063)
T1 construct: endogenous in cells; host or cells: HT29 human colorectal cancer cells (ATCC)
T1 sequence (P25063 27-59 limits assumed): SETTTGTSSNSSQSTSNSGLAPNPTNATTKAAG

T2: human CD24 polypeptide (human) (UniProt P25063)
T2 sequence (looked up): T1 sequence (P25063 27-59 limits assumed)

B1: SWA11 anti-CD24 monoclonal antibody (antibody, human IgG1, kappa, V domains shown)
V domain 1: SDVHLQESGPDLVKPSQSLSLTCTVTGYSITSGYTWHWIRQFPGNTVEWMGYIQYTGSTRYNPALRGRLSISRDTSKNQFFLQLISVTTADTGTYFCARGTTASFDYWGQGTTLTVAS
V domain 2: DIVMSQSPSSLNVSVGEKVTMRCRSSQSLLYSSDQKNYLTWYQQKPGQSPKLLISWASTRASGVPDRFTGSGSGTDFTLTISSVKAEDLGVYYCQQYFIYPLTFGVGTKLGLKR

How the values were obtained:
HT29 cells = test: Combined anti-CD24 mAb and chemotherapy, methylene-blue viability assay; type: cell-based, human; conditions: simultaneous SWA11, 72 hours
Procedure: Experiments were performed in duplicates or repeated twice. The Y axes stand for cell viability quantified via methylene-blue assay.
The killing effect of the anti-CD24 antibodies and the chemotherapies was assessed, in-vitro, using a methylene-blue assay: 2.5×10^3 cells/well were plated onto 96-well in 0.2 ml complete medium. On the morrow the media were refreshed with the addition of the indicated reagents, held in incubation for 72 hours. The cells were washed with PBS and then fixed with a 0.2 mL 4% formaldehyde solution for 2 hours at room temperature. The cells were then washed with PBS, incubated with 0.15 mL ribonuclease A (3 μg/mL) for 30 minutes at room temperature, equilibrated with 0.2 mL sodium borate (0.1M, pH 8.5), and stained with 0.2 mL methylene blue (0.5%) for 10 minutes at room temperature. Finally, the cells were thoroughly washed with tap water and cell-bound dye was eluted with 0.2 mL HCl (0.1M). Color intensity was read in an enzyme-linked immunosorbent assay plate reader at 595 nm. SWA11 served as the anti-CD24 antibody.

CD24 in HT29 cells = molecular target: T1, CD24 in HT29 cells; test: Western blot of CD24 degradation in mAb-treated cells; type: cell-based; conditions: up to 6 hours
Procedure: FIGS. 5A and 5B are photos showing immunodetection on Western blot of CD24 degradation in anti-CD24 mAb treated cancer cells. HT29 (FIG. 5A) and Colo357 (FIG. 5B) cells were exposed to monoclonal anti-CD24 antibody SWA11 for the indicated periods of time, cells harvested and protein extracted. 20 μg of cell proteins from each sample were separated by SDS-PAGE, blotted onto membrane and reacted with anti-CD24 (SWA11 mAb, CD24) or polyclonal anti-actin (1-19, Santa Cruz Biotechnology, Santa Cruz Calif.). Visualization was effected by anti-mouse and anti-goat (respectively) second antibodies. Note the degradation of CD24 apparent already at 2 hours treatment in both cell lines, with no effect on actin levels;
FIG. 6 is a photo showing the lysosomal mediation of CD24 degradation in HT29 cancer cells treated with anti-CD24 mAb. […]
Exponentially growing cells were harvested and protein concentrations were determined using the Bio-Rad protein assay kit (Bio-Rad, Hercules, Calif.). […]
In order to assess whether CD24 proteolysis is involved in the inhibition of CD24-expressing cancer cell growth by anti-CD24 antibodies, protein levels of CD24 and housekeeping gene product actin in mAb-treated and control cells were analyzed by SDS-PAGE and Western blotting with specific antibodies.

[1] = molecular target: T2, human CD24 polypeptide (human); test: cell-based or functional assay
[2] = molecular target: T2, human CD24 polypeptide (human); test: cell-based or functional assay; remark: listed apart in the source

Molecule | cytotoxic effect of chemotherapeutic agent when combined with SWA11 (HT29 cells) | further results
O=c1[nH]cc(F)c(=O)[nH]1 [5-florouracil] | enhanced the cytotoxic effect | 
COc1cccc2c1C(=O)c1c(O)c3c(c(O)c1C2=O)C[C@@](O)(C(=O)CO)C[C@@H]3O[C@H]1C[C@H](N)[C@H](O)[C@H](C)O1 [Doxorubicin] | enhanced the cytotoxic effect | 
CC(C)C[C@@H](C=O)NC(=O)[C@H](CC(C)C)NC(=O)[C@H](CC(C)C)NC(=O)OCc1ccccc1 [MG132] (Cbz-Leu-Leu-Leu-aldehyde) |  | effect on anti-CD24 mAb induced CD24 degradation (CD24 in HT29 cells; 0.1 mM, proteasomal inhibitor, added prior to mAb): had no effect
O=C1[O][Pt]2([NH][C@@H]3CCCC[C@H]3[NH]2)[O]C1=O [Oxaloplatin] | enhanced the cytotoxic effect | 
CC(=O)O[C@H]1C(=O)[C@@]2(C)[C@H]([C@H](OC(=O)c3ccccc3)[C@]3(O)C[C@H](OC(=O)[C@H](O)[C@@H](NC(=O)c4ccccc4)c4ccccc4)C(C)=C1C3(C)C)[C@]1(OC(C)=O)CO[C@@H]1C[C@@H]2O [Paclitaxel] | enhanced the cytotoxic effect | 
CCN(CC)CCCC(C)Nc1ccnc2cc(Cl)ccc12 (centres unmarked) [chloroquine] |  | effect on anti-CD24 mAb induced decrease in CD24 protein level (CD24 in HT29 cells; 0.5 mM, lysosomal inhibitor, added 2 hours before mAb): prevented the decrease in CD24 protein level
SWA11-ZZ-PE38 immunoconjugate |  | cytotoxity (LD50) [1]: 32 ng/mL
B1 |  | growth inhibition (cell viability, methylene blue) [2]: < 90%
